pEC50: −log10 of the molar value.
Assays:
[1] = Effect on Wnt signaling pathway in human SW480 cells harbouring TCF/LEF luciferase reporter gene and SP5-Luc reporter gene incubated for 36 to 48 hrs by luminescence assay; type: cell-based
[2] = Induction of chondrogenesis in human MSC assessed as maximum activity at 30 nM incubated for 6 days by rhodamine B and Nile red staining based imaging analysis relative to control; type: functional; conditions: BMMSC, 144 h, time 6 day
[3] = target: Dual specificity tyrosine-phosphorylation-regulated kinase 1A (Homo sapiens, UniProt Q13627); experiment: Inhibition of recombinant DYRK1A (unknown origin) using Ser/Thr 18 peptide as substrate incubated for 1 hr in presence of ATP by FRET assay
[4] = Induction of chondrogenesis in human MSC assessed as maximum activity at 10 nM incubated for 6 days by rhodamine B and Nile red staining based imaging analysis relative to control; type: functional; conditions: BMMSC, 144 h, time 6 day
[5] = Induction of chondrogenesis in human MSC assessed as incubated for 6 days by rhodamine B and Nile red staining based imaging analysis; type: functional; conditions: bmmsc
[6] = Inhibition of IL1-beta induced MMP3 expression levels in human chondrocytes assessed as MMP3 levels incubated for 2hrs followed by IL1-beta stimulation and measured after overnight incubation by LANCE assay; type: functional, cell-based; conditions: Chondrocyte

Compound | pEC50 [1] | Emax at 0.03 µM [2] [%] | pEC50 [3] | Emax at 0.01 µM [4] [%] | pEC50 [5] | pEC50 [6]
CN(C)Cc1cncc(-c2cc3c(-c4cc5c(N6CCN(C)CC6)nccc5[nH]4)n[nH]c3cn2)c1 | 5.41 | 13.9 | 7.37 |  |  | 
CCNCc1cncc(-c2ccc3[nH]nc(-c4cc5c(-c6cccnc6)ccnc5[nH]4)c3c2)c1 | < 5.00 | 28.7 | 7.25 |  |  | 
O=C(CC1CCNCC1)Nc1cncc(-c2ccc3[nH]nc(-c4cc5c(-c6ccccn6)cccc5[nH]4)c3n2)c1 | 5.84 | 8.03 | 8.00 |  |  | 
CC(C)(C)C(=O)Nc1cncc(-c2cc3c(-c4cc5c(-c6ccncc6)cncc5[nH]4)n[nH]c3cn2)c1 | < 5.00 | 30.4 | 8.10 |  |  | 
CN(C)Cc1cncc(-c2ccc3[nH]nc(-c4cc5c(-c6cccc(F)c6)cncc5[nH]4)c3c2)c1 | 5.89 |  | 7.37 | 193 | 8.00 | 
c1csc(-c2nccc3[nH]c(-c4n[nH]c5cnc(-c6cncc(CN7CCCCC7)c6)cc45)cc23)c1 | 5.43 |  | 7.51 | 59 | 8.00 | 
CN(C)Cc1cncc(-c2ccc3[nH]nc(-c4nc5c(-c6cccc(F)c6)nccc5[nH]4)c3n2)c1 | 5.98 |  | 7.32 | 75.6 | 7.52 | 
c1cncc(-c2ccc3[nH]nc(-c4cc5cccnc5[nH]4)c3n2)c1 | < 5.00 |  | 7.62 | 65.9 | 8.00 | 
CC(C)(C)CC(=O)Nc1cncc(-c2ccc3[nH]nc(-c4nc5ccncc5[nH]4)c3n2)c1 | < 5.00 |  | 7.68 | 54.1 | 8.00 | 
CCNCc1cncc(-c2ccc3[nH]nc(-c4cc5cccnc5[nH]4)c3n2)c1 | 5.42 |  | 7.54 | 79.9 | 8.00 | 
Clc1ccc(-c2cncc3[nH]c(-c4n[nH]c5ccc(-c6cncc(CN7CCCC7)c6)nc45)nc23)s1 | 5.48 |  | 7.27 | 62 | 8.00 | 
Nc1cncc(-c2ccc3[nH]nc(-c4nc5c(-c6ccccc6F)cccc5[nH]4)c3n2)c1 | 5.97 |  | 7.40 | 81.8 | 7.52 | 
c1cncc(-c2ccc3[nH]nc(-c4nc5c(-c6cccnc6)cccc5[nH]4)c3n2)c1 | 5.95 |  | 7.28 | 57.8 | 7.52 | 
c1cncc(-c2ccc3[nH]nc(-c4nc5cnccc5[nH]4)c3n2)c1 | < 5.00 |  | 7.01 | 54.8 | 7.52 | 
O=C(CC1CCNCC1)Nc1cncc(-c2ccc3[nH]nc(-c4cc5c(-c6ccoc6)ccnc5[nH]4)c3n2)c1 | < 5.00 |  | 7.19 | 102 | 8.00 | 
CN(C)Cc1cncc(-c2cc3c(-c4cc5c(-c6cccc(F)c6)nccc5[nH]4)n[nH]c3cn2)c1 | 5.73 |  | 7.27 | 60 | 7.52 | 
c1cncc(-c2cc3c(-c4cc5cnccc5[nH]4)n[nH]c3cn2)c1 | 6.88 |  | 8.70 | 62 | 7.52 | 
CN(C)CCNc1cc(F)cc(-c2cccc3[nH]c(-c4n[nH]c5cnc(-c6cncc(O)c6)cc45)cc23)c1 | 6.39 |  | 7.22 | 66.4 | 8.00 | 
CC(C)C(=O)Nc1cncc(-c2cc3c(-c4cc5c(-c6cc(F)cc(CNS(C)(=O)=O)c6)nccc5[nH]4)n[nH]c3cn2)c1 | < 5.00 |  | 7.57 | 79.5 | 7.52 | 
c1cc(-c2cncc3[nH]c(-c4n[nH]c5ccc(-c6cncc(CN7CCCCC7)c6)nc45)cc23)ccn1 | < 5.00 |  | 7.70 | 97.1 | 8.00 | 
COc1cccc(-c2nccc3[nH]c(-c4n[nH]c5ccc(-c6cccnc6)nc45)nc23)c1 | 6.42 |  | 7.59 | 50.6 | 7.52 | 
O=C(Nc1cncc(-c2cnc3[nH]nc(-c4cc5c(-c6ccccc6F)cncc5[nH]4)c3c2)c1)C1CC1 | 6.41 |  | 7.32 | 52.1 | 8.00 | 
CCC(=O)Nc1cncc(-c2cnc3[nH]nc(-c4cc5c(-c6cccnc6)cccc5[nH]4)c3c2)c1 | 6.74 |  | 7.89 | 671 | 8.00 | 
Cc1ccc(-c2nccc3[nH]c(-c4n[nH]c5ccc(-c6cncc(N)c6)nc45)nc23)s1 | 7.34 |  | 8.70 | 72.6 | 8.00 | 5.52

Compound | pEC50 [1] | Emax at 0.03 µM [2] [%] | pEC50 [3] | Emax at 0.01 µM [4] [%] | pEC50 [5] | pEC50 [6]
CC(C)Nc1cncc(-c2ccc3[nH]nc(-c4nc5c(-c6cccnc6)cncc5[nH]4)c3n2)c1 | 5.90 |  | 7.82 | 64.6 | 7.52 | 
COc1cncc(C(=O)Nc2c[nH]nc2C(=O)Nc2ccc(OCCN3CCCC3)nc2)c1 | 7.65 |  | 7.92 | 106 | 8.00 | 
Cc1cn(-c2nccc3[nH]c(-c4n[nH]c5ccc(-c6cncc(NC(=O)C(C)(C)C)c6)nc45)nc23)cn1 | < 5.00 |  | 7.41 | 69.7 | 7.52 | 
CC(C)CC(=O)Nc1cncc(-c2cc3c(-c4cc5c(-c6cccs6)nccc5[nH]4)n[nH]c3cn2)c1 | 6.24 |  | 7.36 | 81.4 | 8.00 | 
O=C(Nc1cncc(-c2ccc3[nH]nc(-c4nc5c(-c6ccc(Cl)s6)nccc5[nH]4)c3n2)c1)C1CCC1 | 6.08 |  | 7.04 | 60.2 | 7.52 | 
Cc1ncc(-c2cnc3[nH]nc(-c4cc5c(-c6ccncc6)cncc5[nH]4)c3c2)n1C | < 5.00 |  | 7.55 | 194 | 8.00 | 
CS(=O)(=O)NCc1cc(F)cc(-c2nccc3[nH]c(-c4n[nH]c5ccc(-c6cncc(NC(=O)Cc7ccccc7)c6)nc45)cc23)c1 | < 5.00 |  | 7.00 | 110 | 8.00 | 
c1ccc2[nH]c(-c3n[nH]c4ncc(-c5cncc(CN6CCCC6)c5)cc34)cc2c1 | 5.85 |  | 7.25 | 97.6 | 8.00 | 
CCNCc1cncc(-c2cc3c(-c4cc5c(-c6cccnc6)cncc5[nH]4)n[nH]c3cn2)c1 | 5.43 |  | 8.70 | 67.6 | 8.00 | 5.52
CCNCc1cncc(-c2ccc3[nH]nc(-c4cc5ccccc5[nH]4)c3c2)c1 | 6.40 |  | 7.96 | 532 | 8.00 | 
CCCC(=O)Nc1cncc(-c2cc3c(-c4cc5c(-c6cc(F)cc(NCCN(C)C)c6)ccnc5[nH]4)n[nH]c3cn2)c1 | < 5.00 |  | 7.41 | 162 | 8.00 | 
c1cnc2[nH]c(-c3n[nH]c4ccc(-c5cncc(CN6CCCCC6)c5)cc34)cc2c1 | 5.78 |  | 8.40 | 50.8 | 8.00 | 
CCCCC(=O)Nc1cncc(-c2cc3c(-c4cc5c(-c6cc(F)cc(CNS(C)(=O)=O)c6)nccc5[nH]4)n[nH]c3cn2)c1 | < 5.00 |  | 7.21 | 111 | 8.00 | 
CC(C)CC(=O)Nc1cncc(-c2cc3c(-c4nc5c(-c6cc(F)cc(OCCN7CCCC7)c6)cncc5[nH]4)n[nH]c3cn2)c1 | < 5.00 |  | 8.52 | 20.3 |  | 5.52
CN1CCN(c2cncc3[nH]c(-c4n[nH]c5ccc(-c6cncc(N)c6)nc45)nc23)CC1 | < 5.00 |  | 8.05 | 64.6 | 7.52 | 
CCNCc1cncc(-c2cnc3[nH]nc(-c4cc5c(-c6cccnc6)ccnc5[nH]4)c3c2)c1 | < 5.00 |  | 7.59 | 91.8 | 8.00 | 
CCCCC(=O)Nc1cncc(-c2ccc3[nH]nc(-c4nc5c(-c6cc(F)cc(NCCN(C)C)c6)cncc5[nH]4)c3n2)c1 | < 5.00 |  | 7.26 | 64.7 | 8.00 | 
CS(=O)(=O)NCc1cc(F)cc(-c2nccc3[nH]c(-c4n[nH]c5cnc(-c6cncc(CNCC7CCCC7)c6)cc45)cc23)c1 | < 5.00 |  | 7.57 | 52.3 | 7.52 | 
Cc1ccc(-c2nccc3[nH]c(-c4n[nH]c5ccc(-c6cncc(N)c6)cc45)nc23)s1 | 8.72 |  | 7.24 | 163 | 5.57 | 
CN1CCN(c2nccc3[nH]c(-c4n[nH]c5cnc(-c6cncc(NC(=O)c7ccccc7)c6)cc45)cc23)CC1 | 5.55 |  | 8.40 | 67 | 8.00 | 
CC(C)Oc1ccc(NC(=O)c2n[nH]c3ccc(-c4cncc(CN5CC6CC(C5)O6)c4)cc23)cn1 | 7.21 |  |  | 75.7 | 7.52 | 9.70
CN(C)CCNc1cc(F)cc(-c2cccc3[nH]c(-c4n[nH]c5ccc(-c6cncnc6)nc45)cc23)c1 | 6.38 |  | 7.12 | 181 | 8.00 | 
CS(=O)(=O)NCc1cc(F)cc(-c2nccc3[nH]c(-c4n[nH]c5ccc(-c6cncc(CN7CCCCC7)c6)nc45)cc23)c1 | 5.96 |  | 7.17 | 50.1 | 8.00 | 
O=C(Nc1cncc(-c2ccc3[nH]nc(-c4cc5c(-c6cccnc6)cncc5[nH]4)c3c2)c1)c1ccccc1 | < 5.00 |  | 7.46 | 68.5 | 8.00 | 

— ChEMBL document CHEMBL4739717, “Methods of treating cartilage disorders through inhibition of clk and dyrk” (2020)
